{"source": "patent US20190209515A1", "about": "“Treatment of Bladder Cancer by Intratumoral Injection of Taxane Particles” (CRITITECH, INC., priority 2018, published 2019)", "key": {"[1]": {"conditions": "not told, pH 4", "description": "Receptor Fluid: The receptor fluid consisted of 60 vol %/40 vol % methanol/water at pH 4 with 0.01 wt % NaN3 (added as a preservative). […] After mixing and degassing the Receptor Fluid it was filtered through a ZapCap CR 0.2 μm membrane under vacuum; the Receptor Fluid, so filtered, was stirred for an additional 20 minutes under vacuum."}, "[2]": {"assay": "Docetaxel dissolution study, methanol/water 15/85, USP Apparatus II", "format": "physicochemical", "conditions": "methanol/water 15/85 (v/v), 37° C., pH 7, USP Apparatus II 75 rpm", "procedure": "The procedures used to determine the dissolution rates are as follows. […] Beads were transferred to a stainless steel mesh container and placed in the dissolution bath containing methanol/water 50/50 (v/v) media at 37° C., pH 7, and a USP Apparatus II (Paddle), operating at 75 rpm. At 10, 20, 30, 60, and 90 minutes, a 5 mL aliquot was removed, filtered through a 0.22 μm filter and analyzed on a UV/VIS spectrophotometer at 227 nm. Absorbance values of the samples were compared to those of standard solutions prepared in dissolution media to determine the amount of material dissolved. […] At 5, 15, 30, 60, 120 and 225 minutes, a 5 mL aliquot was removed, filtered through a 0.22 μm filter, and analyzed on a UV/VIS spectrophotometer at 232 nm. Absorbance values of the samples were compared to those of standard solutions prepared in dissolution media to determine the amount of material dissolved.\nAt 5, 15, 30, 60, 120 and 225 minutes, a 5 mL aliquot was removed, filtered through a 0.22 μm filter, and analyzed on a UV/VIS spectrophotometer at 232 nm. Absorbance values of the samples were compared to those of standard solutions prepared in dissolution media to determine the amount of material dissolved."}, "[3]": {"system": "UM-UC-3 bladder cancer cell line (ATCC-CRL-1749) tumors", "assay": "UM-UC-3 xenograft study, H&E histology and immunohistochemistry of tumor site tissue", "format": "in vivo, mouse"}, "[4]": {"system": "UM-UC-3 bladder cancer cell line (ATCC-CRL-1749) tumors", "assay": "Human bladder cancer (UM-UC-3) mouse xenograft study, tumor volume", "format": "in vivo", "procedure": "(§1) Tumor volume was determined with calipers. […] Animals were weighed 2×/week.\nAt day 18 after tumor implant, when average tumor size was between 50-325 mm^3, animals were sorted into five groups with equal average tumor sizes and were treated as shown in Table 8 below.\nThe second treatments (2nd cycle) occurred 7 days following first treatment (1st cycle) and third treatments (3rd cycle) occurred 14 days following the first treatment. The docetaxel solution IV was administered via the tail vein.\nVehicle (Control): Diluted 1 ml of the 1% Polysorbate 80/8% Ethanol in normal saline (0.9% Sodium Chloride for Injection) reconstitution solution with 1.5 mL of normal saline (0.9% Sodium Chloride for Injection, USP). […] Vigorously hand shook the vial with inversions for 1 minute. […] Allowed the suspension to sit undisturbed for at least 5 minutes to reduce entrapped air and foam. […] Vortexed to mix.\nTumor volumes were determined 2×/week for the duration of the study (61 days)."}, "[5]": {"conditions": "mouse, in vivo, iv", "procedure": "as §1"}, "[6]": {"conditions": "IV docetaxel 3 cycles, of 7 tumors measured, day of death or euthanasia"}, "[7]": {"assay": "BET specific surface area analysis", "format": "physicochemical", "procedure": "As used herein, the “specific surface area” (SSA) is the total surface area of the taxane particle per unit of taxane mass as measured by the Brunauer-Emmett-Teller (“BET”) isotherm by the following method: a known mass between 200 and 300 mg of the analyte is added to a 30 mL sample tube. […] The automated test is then carried out using the BETWIN® software package and the surface area of each sample is subsequently calculated. As will be understood by those of skill in the art, the “taxane particles” can include both agglomerated taxane particles and non-agglomerated taxane particles; since the SSA is determined on a per gram basis it takes into account both the larger agglomerated and smaller non-agglomerated taxane particles in the composition. The agglomerated taxane particles are defined herein as individual taxane particles that are formed by the agglomeration of smaller particles which fuse together forming the larger individual taxane particles, all of which occurs during the processing of the taxane particles. […]\nA known mass between 200 and 300 mg of the analyte was added to a 30 mL sample tube. […] The automated test was then carried out using the BETWIN® software package and the surface area of each sample was subsequently calculated."}, "[8]": {"assay": "Particle size analysis (light obscuration / laser diffraction)", "format": "physicochemical", "procedure": "Particle size was analyzed by both light obscuration and laser diffraction methods. An Particle Sizing Systems AccuSizer 780 SIS system was used for the light obscuration method and Shimadzu SALD-7101 was used for the laser diffraction method.\nThe vials were vortexed for approximately 10 seconds and then sonicated in a sonic bath approximately 1 minute.\nThe vial was vortexed for approximately 10 seconds and then sonicated in a sonic bath for approximately 2 minutes. This suspension was used for laser diffraction analysis. Unused suspension was poured into a 125 mL particle-free plastic bottle, which was then filled to approximately 100 mL with filtered dispersant. The suspension was vortex for approximately 10 seconds and then sonicated in the sonic bath for approximately 2 minutes. This diluted suspension was used for light obscuration analysis.\nA background test was first performed prior to analyzing particles on the AccuSizer 780 SIS. A new particle-free plastic bottle was filled with blank suspension solution by pumping from a reservoir, using a peristaltic pump, through a 0.22 μm Millipore filter and into the bottle. A background analysis was run to ensure the particle/mL count was below 100 particles/mL. […] Once the analysis was completed, the background data was removed and any measurement with less than four counts was removed. […]"}, "[9]": {"assay": "Paclitaxel dissolution study, methanol/water 50/50, USP Apparatus II", "format": "physicochemical", "conditions": "methanol/water 50/50 (v/v), 37° C., pH 7, USP Apparatus II 75 rpm", "procedure": "Beads were transferred to a stainless steel mesh container and placed in the dissolution bath containing methanol/water 50/50 (v/v) media at 37° C., pH 7, and a USP Apparatus II (Paddle), operating at 75 rpm. […] Absorbance values of the samples were compared to those of standard solutions prepared in dissolution media to determine the amount of material dissolved. […] Absorbance values of the samples were compared to those of standard solutions prepared in dissolution media to determine the amount of material dissolved.\nBeads were transferred to a stainless steel mesh container and placed in the dissolution bath containing methanol/water 50/50 (v/v) media at 37° C., pH 7, and a USP Apparatus II (Paddle), operating at 75 rpm. […] Absorbance values of the samples were compared to those of standard solutions prepared in dissolution media to determine the amount of material dissolved."}, "[10]": {"conditions": "IV Docetaxel 3 cycles, 2 animals"}, "[11]": {"conditions": "IV Docetaxel 3 cycles, individual animals"}}, "note": "Values joined by “and” are separate entries in the source; they are usually repeats but may differ in a detail not shown here. Equal entries are not always repeated. “Also recorded” adds a separate entry of the source. Marks after values point to notes of the source that are not given here."}
{"compound": "CC(=O)O[C@H]1C(=O)[C@@]2(C)[C@H]([C@H](OC(=O)c3ccccc3)[C@]3(O)C[C@H](OC(=O)[C@H](O)[C@@H](NC(=O)c4ccccc4)c4ccccc4)C(C)=C1C3(C)C)[C@]1(OC(C)=O)CO[C@@H]1C[C@@H]2O", "note": "[paclitaxel]", "values": [{"measurement": "solubility in the Receptor Fluid", "setting": "[1]", "result": "sufficient to maintain sink conditions"}]}
{"compound": "CC(=O)O[C@@]12CO[C@@H]1C[C@H](O)[C@@]1(C)C(=O)[C@H](O)C3=C(C)[C@@H](OC(=O)[C@H](O)[C@@H](NC(=O)OC(C)(C)C)c4ccccc4)C[C@@](O)([C@@H](OC(=O)c4ccccc4)[C@H]21)C3(C)C", "note": "[Docetaxel Raw Material, docetaxel]", "values": [{"measurement": "Dissolution (30 min)", "setting": "[2]", "result": 11, "unit": "%"}]}
{"compound": "docetaxel", "values": [{"measurement": "general histological observations (H&E)", "setting": "[3]; Docetaxel solution IV 3 cycles", "result": "many viable appearing tumor masses with some macrophage and occasional lymphocytic response along with some tumor necrosis"}, {"measurement": "Maximum size of viable invasive carcinoma on the slide >10 mm, number of animals", "setting": "[3]; [10]", "result": "2*"}, {"measurement": "Percentage of tumor showing necrosis 11-50%, number of animals", "setting": "[3]; [10]", "result": 1}, {"measurement": "Percentage of tumor showing necrosis 50-90%, number of animals", "setting": "[3]; [10]", "result": 1}, {"measurement": "Macrophage infiltrate density Mild, number of animals", "setting": "[3]; IV Docetaxel 3 cycles, 2 animals, H&E and CD68", "result": 2}, {"measurement": "Maximum tumor size on slide", "setting": "[3]; [11]", "result": "11 mm and 15 mm"}, {"measurement": "tumor volume", "setting": "[4]; Docetaxel solution 30 mg/kg IV, 3 weekly cycles, to Day 61 post implant", "result": "subsequently increased; also recorded: somewhat effective at treating small tumors, but not very effective in treating large tumors"}, {"measurement": "Necropsy volume", "setting": "[4]; [11]", "result": "2872 mm^3 and 1652 mm^3"}, {"measurement": "initial animal weight loss", "setting": "[5]", "result": "generally greater"}, {"measurement": "signs of peripheral neuropathy", "setting": "[5]", "result": "greater signs of peripheral neuropathy"}, {"measurement": "tumors with docetaxel levels above the limit of quantitation (1 ng/g)", "setting": "[6]", "result": 1}]}
{"compound": "CC(=O)O[C@H]1C(=O)[C@@]2(C)[C@H]([C@H](OC(=O)c3ccccc3)[C@]3(O)C[C@H](OC(=O)[C@H](O)[C@@H](NC(=O)c4ccccc4)c4ccccc4)C(C)=C1C3(C)C)[C@]1(OC(C)=O)CO[C@@H]1C[C@@H]2O", "note": "[Paclitaxel Raw Material, paclitaxel]", "values": [{"measurement": "Surface Area", "setting": "[7]", "result": 10.4, "unit": "m^2/g"}, {"measurement": "Number Mean", "setting": "[8]", "result": 1.16, "unit": "um"}, {"measurement": "Dissolution (30 min)", "setting": "[9]", "result": 18, "unit": "%"}]}
